The text below walks through data of patent US11401255B2, “Small molecule activators of Parkin enzyme function” (Mayo Foundation for Medical Education and Research, priority 2016, dated 2022).

The target of this experiment is FLAG-Parkin C431S (Homo sapiens (Human), UniProt O60260, C431S). In words: Ub-charging of FLAG-Parkin C431S (western blot). In kind it is cell-based. As to conditions: 5 μM or 1 μM, 2 h before 3.5 μM CCCP. The procedure:
Another measure of Parkin activation is Ub charging of Parkin. Parkin receives Ub from an E2 enzyme to transfer it to a substrate protein. The Ub is bound by Parkin C431 in an unstable thioester bond. A serine substitution of this amino acid (C431S) leads to a stable oxyester bond. The bound Ub can then be visualized as a band shift in Western blot experiments. HeLa 3×FLAG-Parkin C431S cells were seeded in 12-well plates and allowed to attach overnight. Cells were treated with 5 μM (top panels) or 1 μM (bottom panels) of Compounds 1, 2, 3, 4, and 31 2 h before adding CCCP for another 2 h. 10 μM CCCP was added to positive control (PC) wells whereas all other samples received a low dose concentration of 3.5 μM. Cells were harvested in boiling hot SDS lysis buffer and protein concentration was determined by BCA. Samples were split and left either untreated or were treated with NaOH as indicated. Samples were run on an 8-16% Tris-Glycine gel, blotted onto membranes and probed with antibodies against Flag and pS65-Ub. GAPDH served as a loading control. Band shift indicates Parkin binding to Ubiquitin, which is cleavable with NaOH.
Cells were harvested in RIPA buffer or NP-40 lysis buffer containing protease and phosphatase inhibitors (Complete and PhosStop, Roche Applied Science) with the exception of Parkin Ub charging experiments where preheated (95° C.) SDS lysis buffer (50 mM Tris pH 7.6, 150 mM NaCl, 1% SDS) was used. Concentration of cell lysates was determined with bicinchoninic acid (Pierce Biotechnology). For Parkin Ub charging experiments, aliquots of lysates were treated with […] for 1 h at 37° C. pH was neutralized with equinormal HCl.
Protein was subjected to SDS-PAGE using 4-20% or 8-16% Tris-Glycine gels (Invitrogen) and transferred onto polyvinylidene fluoride (PVDF) (Millipore). Membranes were incubated with primary antibodies overnight at 4° C. followed by HRP-conjugated secondary antibodies (1:10,000; Jackson ImmunoResearch Laboratories). Primary antibodies used: beta III tubulin (rabbit, 1:1000, CST, #5568, CST), FLAG (mouse, 1:250,000, Sigma, F3165), GAPDH (mouse, 1:100,000-500,000, Meridian Life science, H86504M), GST (1:10,000, Sigma, G7781), MFN1 (mouse, 1:5,000, Abcam, ab57602), MFN2 (mouse, 1:5,000, Abcam, ab56889), Parkin (mouse, 1:2,000, Cell Signaling, #4211), pSer65-Ub (rabbit, 1:15,000, in-house (Fiesel et al., EMBO Reports (2015) 16:1114-30; Fiesel et al., (2015) Autophagy 11:2125-2126)), TOM70 (rabbit, 1:5,000, Proteintech, 14528-1-AP), UBE2L3 (rabbit, 1:10,000, ProteinTech, 14415-1-AP), VDAC1 (mouse, 1:5,000, Abcam, ab14734), vinculin (mouse, 1:100,000, Sigma, V9131).
HeLa 3×FLAG-Parkin C431S cells were seeded in 6-well plates and allowed to attach overnight. Cells were treated with […] of compounds 5, 21-28, 32, 33, or 43-46 2 h before adding CCCP for another 2 h. 10 VM CCCP was added to positive control (PC) wells, 3.5 μM CCCP to compound (+) and negative control (NC) wells. […] Cells were harvested in boiling hot SDS lysis buffer and protein concentration was determined by BCA. Samples were split and left either untreated or were treated with NaOH as indicated. Samples were run on an 8-16% Tris-Glycine gel, blotted onto membranes and probed with antibodies against Flag. Vinculin served as a loading control. Band shift indicates Parkin binding to Ubiquitin, which is cleavable with NaOH (FIG. 21).
For orientation: In western blotting, separated proteins are transferred to a membrane and probed.
In the case of `O=C(Cn1cnc2c1CCCC2)Nc1ccc(-c2ccccc2)cc1` [Compound 1], the “Ub-charging of FLAG-Parkin C431S (WB)” value is “enhanced Ub-charging”. Take `CC(C)c1nccn1CC(=O)Nc1ccc(-c2ccccc2)cc1` [Compound 2]: the “Ub-charging of FLAG-Parkin C431S (WB)” value is listed as “enhanced Ub-charging”. On to `CC(C)(C)Sc1ccc(NC(=O)Cn2ccnc2)cc1` [Compound 3], for which the “Ub-charging of FLAG-Parkin C431S (WB)” value was “enhanced Ub-charging”. Regarding `O=C(Cn1ccnc1-c1ccccn1)Nc1ccc(-c2ccccc2)cc1` [Compound 4], the “Ub-charging of FLAG-Parkin C431S (WB)” value is reported as “enhanced Ub-charging”. With `Cc1nc2c(c(N3CCCN(Cc4ccccc4)CC3)n1)CCCC2` [Compound 31], the “Ub-charging of FLAG-Parkin C431S (WB)” value was “enhanced Ub-charging”.
